# In ChEMBL document CHEMBL1255421, “In vitro fungicidal activities of echinocandins against Candida metapsilosis, C. orthopsilosis, and C. parapsilosis evaluated by time-kill studies” (2010):
# The source made the active and inactive calls. No cut-off for these calls is given here. Numbered stars: 1 amine (or outer) side, 2 acyl side, 3 side chain; on linkers, the order of the positions; unused ones are H or OH. Bridge positions count the residues as written; N and C are the ends. Square brackets hold non-standard residues; d marks the D form. Peptide text beside a SMILES is read from it. * marks the point of attachment. hTyr(3S-OH,4S-OH,3'-OSO3H) = N[C@H](C(=O)O)[C@H](O)[C@@H](O)c1ccc(O)c(OS(=O)(=O)O)c1; Orn(4R-OH,5R-OH) = O=C([C@H](C[C@@H](O)[C@@H](O)N[*:3])N[*:1])[*:2]; Pro(3S-OH,4S-Me) = C[C@H]1CN[C@H](C(=O)O)[C@H]1O; X1 = CCCCCOc1ccc(-c2cc(-c3ccc(C(=O)*)cc3)no2)cc1; Gln(3R-OH) = NC(=O)C[C@@H](O)[C@H](N)C(=O)O; Hyp = O=C(O)[C@@H]1C[C@@H](O)CN1
# Tests used:
# [1] = tested on: Candida metapsilosis; test: Antifungal activity against Candida metapsilosis clinical isolate bloodstream form assessed as induction of fungal killing rate at 0.03 to 32 mg/L measured at 6 hrs by time-kill assay; assay type: functional, organism-based
# [2] = tested on: Candida orthopsilosis; test: Antifungal activity against Candida orthopsilosis clinical isolate bloodstream form assessed as time required for 90% reduction in fungal growth at 1 mg/L by time-kill assay; assay type: functional
# [3] = tested on: Candida metapsilosis; test: Antifungal activity against Candida metapsilosis clinical isolate bloodstream form assessed as time required for 99.9% reduction in fungal growth at 1 mg/L by time-kill assay; assay type: functional
# [4] = tested on: Candida metapsilosis; test: Antifungal activity against Candida metapsilosis clinical isolate bloodstream form assessed as time required for 50% reduction in fungal growth at 0.25 mg/L by time-kill assay; assay type: functional
# [5] = tested on: Candida orthopsilosis; test: Fungicidal activity against Candida orthopsilosis isolate CP-131 bloodstream form by CLSI method; assay type: functional; settings: Lodderomyces orthopsilosis
# [6] = tested on: Candida orthopsilosis; test: Antifungal activity against Candida orthopsilosis clinical isolate bloodstream form assessed as time required for 99.9% reduction in fungal growth at 16 mg/L by time-kill assay; assay type: functional
# [7] = tested on: Candida orthopsilosis; test: Antifungal activity against Candida orthopsilosis clinical isolate bloodstream form assessed as time required for 99.9% reduction in fungal growth at 32 mg/L by time-kill assay; assay type: functional
# [8] = tested on: Candida parapsilosis; test: Antifungal activity against Candida parapsilosis clinical isolate bloodstream form assessed as time required for 99.9% reduction in fungal growth at 4 mg/L by time-kill assay; assay type: functional
# [9] = tested on: Candida parapsilosis; test: Fungicidal activity against Candida parapsilosis isolate CP-301 bloodstream form by CLSI method; assay type: functional; settings: Lodderomyces parapsilosis
# [10] = tested on: Candida metapsilosis; test: Antifungal activity against Candida metapsilosis clinical isolate bloodstream form assessed as time required for 90% reduction in fungal growth at 1 mg/L by time-kill assay; assay type: functional
# [11] = tested on: Candida parapsilosis; test: Antifungal activity against Candida parapsilosis clinical isolate bloodstream form assessed as time required for 90% reduction in fungal growth at 32 mg/L by time-kill assay; assay type: functional
# [12] = tested on: Candida orthopsilosis; test: Antifungal activity against Candida orthopsilosis clinical isolate bloodstream form assessed as time required for 50% reduction in fungal growth at 16 mg/L by time-kill assay; assay type: functional
# [13] = tested on: Candida parapsilosis; test: Antifungal activity against Candida parapsilosis clinical isolate bloodstream form assessed as time required for 50% reduction in fungal growth at 0.25 mg/L by time-kill assay; assay type: functional
# [14] = tested on: Candida orthopsilosis; test: Antifungal activity against Candida orthopsilosis clinical isolate bloodstream form assessed as time required for 50% reduction in fungal growth at 4 mg/L by time-kill assay; assay type: functional
# [15] = tested on: Candida metapsilosis; test: Antifungal activity against Candida metapsilosis clinical isolate bloodstream form assessed as time required for 90% reduction in fungal growth at 4 mg/L by time-kill assay; assay type: functional
# [16] = tested on: Candida metapsilosis; test: Antifungal activity against Candida metapsilosis clinical isolate bloodstream form assessed as time required for 50% reduction in fungal growth at 32 mg/L by time-kill assay; assay type: functional
# [17] = tested on: Candida metapsilosis; test: Antifungal activity against Candida metapsilosis clinical isolate bloodstream form assessed as time required for 50% reduction in fungal growth at 1 mg/L by time-kill assay; assay type: functional
# [18] = tested on: Candida orthopsilosis; test: Antifungal activity against Candida orthopsilosis clinical isolate bloodstream form assessed as mild induction of fungal death at 0.03 to 32 mg/L after 6 hrs by time-kill assay; assay type: functional, organism-based
# [19] = tested on: Candida parapsilosis; test: Antifungal activity against Candida parapsilosis clinical isolate bloodstream form assessed as time required for 99.9% reduction in fungal growth at 16 mg/L by time-kill assay; assay type: functional
# [20] = tested on: Candida parapsilosis; test: Fungicidal activity against Candida parapsilosis ATCC 22019 bloodstream form by CLSI method; assay type: functional; settings: Lodderomyces parapsilosis
# [21] = tested on: Candida metapsilosis; test: Antifungal activity against Candida metapsilosis clinical isolate bloodstream form assessed as time required for 99% reduction in fungal growth at 4 mg/L by time-kill assay; assay type: functional
# [22] = tested on: Candida parapsilosis; test: Antifungal activity against Candida parapsilosis clinical isolate bloodstream form assessed as time required for 90% reduction in fungal growth at 4 mg/L by time-kill assay; assay type: functional
# [23] = tested on: Candida parapsilosis; test: Antifungal activity against Candida parapsilosis clinical isolate bloodstream form assessed as time required for 90% reduction in fungal growth at 0.25 mg/L by time-kill assay; assay type: functional
# [24] = tested on: Candida parapsilosis; test: Antifungal activity against Candida parapsilosis clinical isolate bloodstream form assessed as time required for 99% reduction in fungal growth at 16 mg/L by time-kill assay; assay type: functional
# [25] = tested on: Candida parapsilosis; test: Antifungal activity against Candida parapsilosis clinical isolate bloodstream form assessed as time required for 50% reduction in fungal growth at 4 mg/L by time-kill assay; assay type: functional
# [26] = tested on: Candida orthopsilosis; test: Antifungal activity against Candida orthopsilosis clinical isolate bloodstream form assessed as time required for 90% reduction in fungal growth at 4 mg/L by time-kill assay; assay type: functional
# [27] = tested on: Candida orthopsilosis; test: Fungicidal activity against Candida orthopsilosis isolate CP-151 bloodstream form by CLSI method; assay type: functional; settings: Lodderomyces orthopsilosis
# [28] = tested on: Candida parapsilosis; test: Antifungal activity against Candida parapsilosis clinical isolate bloodstream form assessed as time required for 99% reduction in fungal growth at 4 mg/L by time-kill assay; assay type: functional
# [29] = tested on: Candida orthopsilosis; test: Antifungal activity against Candida orthopsilosis clinical isolate bloodstream form assessed as time required for 99% reduction in fungal growth at 16 mg/L by time-kill assay; assay type: functional
# [30] = tested on: Candida orthopsilosis; test: Antifungal activity against Candida orthopsilosis clinical isolate bloodstream form assessed as time required for 50% reduction in fungal growth at 1 mg/L by time-kill assay; assay type: functional
# [31] = tested on: Candida parapsilosis; test: Fungicidal activity against Candida parapsilosis isolate CP-300 bloodstream form by CLSI method; assay type: functional; settings: Lodderomyces parapsilosis
# [32] = tested on: Candida orthopsilosis; test: Antifungal activity against Candida orthopsilosis clinical isolate bloodstream form assessed as time required for 99% reduction in fungal growth at 1 mg/L by time-kill assay; assay type: functional
# [33] = tested on: Candida orthopsilosis; test: Antifungal activity against Candida orthopsilosis clinical isolate bloodstream form assessed as time required for 99.9% reduction in fungal growth at 1 mg/L by time-kill assay; assay type: functional
# [34] = tested on: Candida metapsilosis; test: Antifungal activity against Candida metapsilosis clinical isolate bloodstream form assessed as time required for 90% reduction in fungal growth at 16 mg/L by time-kill assay; assay type: functional
# [35] = tested on: Candida orthopsilosis; test: Antifungal activity against Candida orthopsilosis clinical isolate bloodstream form assessed as time required for 50% reduction in fungal growth at 0.25 mg/L by time-kill assay; assay type: functional
# [36] = tested on: Candida orthopsilosis; test: Fungicidal activity against Candida orthopsilosis isolate CP-150 bloodstream form by CLSI method; assay type: functional; settings: Lodderomyces orthopsilosis
# [37] = tested on: Candida orthopsilosis; test: Antifungal activity against Candida orthopsilosis clinical isolate bloodstream form assessed as time required for 90% reduction in fungal growth at 32 mg/L by time-kill assay; assay type: functional
# [38] = tested on: Candida orthopsilosis; test: Antifungal activity against Candida orthopsilosis clinical isolate bloodstream form assessed as time required for 90% reduction in fungal growth at 16 mg/L by time-kill assay; assay type: functional
# [39] = tested on: Candida orthopsilosis; test: Antifungal activity against Candida orthopsilosis clinical isolate bloodstream form assessed as time required for 99.9% reduction in fungal growth at 0.25 mg/L by time-kill assay; assay type: functional
# [40] = tested on: Candida parapsilosis; test: Fungicidal activity against Candida parapsilosis isolate CP-302 bloodstream form by CLSI method; assay type: functional; settings: Lodderomyces parapsilosis
# [41] = tested on: Candida parapsilosis; test: Antifungal activity against Candida parapsilosis clinical isolate bloodstream form assessed as induction of fungal killing rate at 0.03 to 32 mg/L measured at 6 hrs by time-kill assay; assay type: functional, organism-based
# [42] = tested on: Candida orthopsilosis; test: Antifungal activity against Candida orthopsilosis clinical isolate bloodstream form assessed as induction of fungal killing rate at 0.03 to 32 mg/L measured at 6 hrs by time-kill assay; assay type: functional, organism-based
# [43] = tested on: Candida parapsilosis; test: Antifungal activity against Candida parapsilosis clinical isolate bloodstream form assessed as time required for 99% reduction in fungal growth at 1 mg/L by time-kill assay; assay type: functional
# [44] = tested on: Candida metapsilosis; test: Fungicidal activity against Candida metapsilosis isolate CP-132 bloodstream form by CLSI method; assay type: functional; settings: Lodderomyces metapsilosis
structure (smiles),measurement,setting,value
CC[C@H](C)C[C@H](C)CCCCCCCCC(=O)N[C@H]1C[C@@H](O)[C@@H](NCCN)NC(=O)[C@@H]2[C@@H](O)CCN2C(=O)[C@H]([C@H](O)CCN)NC(=O)[C@H]([C@H](O)[C@@H](O)c2ccc(O)cc2)NC(=O)[C@@H]2C[C@@H](O)CN2C(=O)[C@H]([C@@H](C)O)NC1=O [CASPOFUNGIN],Activity,[1],inactive
same,Time,[2],24.75 h
same,Time,[3],>48 h
same,Time,[4],>48 h
same,MIC,[5],2 µg/mL
same,Time,[6],38.46 h
same,Time,[7],>48 h
same,Time,[8],>48 h
same,MIC,[9],2 µg/mL
same,Time,[10],>48 h
same,Time,[11],6.6 h
same,Time,[12],3.86 h
same,Time,[13],>48 h
same,Time,[14],3.42 h
same,Time,[15],25.58 h
same,Time,[16],1.99 h
same,Time,[17],22.3 h
same,Activity,[18],Active
same,Time,[19],>48 h
same,MIC,[20],1 µg/mL
same,Time,[21],>48 h
same,Time,[22],25.58 h
same,Time,[23],>48 h
same,Time,[24],>48 h
same,Time,[25],7.7 h
same,Time,[26],11.35 h
same,MIC,[27],0.5 µg/mL
same,Time,[28],>48 h
same,Time,[29],25.64 h
same,Time,[30],7.45 h
same,MIC,[31],2 µg/mL
same,Time,[32],>48 h
same,Time,[33],>48 h
same,Time,[34],8.61 h
same,Time,[35],17.5 h
same,MIC,[36],0.5 µg/mL
same,Time,[37],34.97 h
same,Time,[38],12.82 h
same,Time,[39],>48 h
same,MIC,[40],2 µg/mL
same,Activity,[41],inactive
same,Activity,[42],inactive
same,Time,[43],>48 h
same,MIC,[44],0.25 µg/mL
"CCCCCOc1ccc(-c2cc(-c3ccc(C(=O)N[C@H]4C[C@@H](O)[C@@H](O)NC(=O)[C@@H]5[C@@H](O)[C@@H](C)CN5C(=O)[C@H]([C@H](O)CC(N)=O)NC(=O)[C@H]([C@H](O)[C@@H](O)c5ccc(O)c(OS(=O)(=O)O)c5)NC(=O)[C@@H]5C[C@@H](O)CN5C(=O)[C@H]([C@@H](C)O)NC4=O)cc3)no2)cc1 [MICAFUNGIN] (X1-[Orn(4R-OH,5R-OH)]T[Hyp][hTyr(3S-OH,4S-OH,3'-OSO3H)][Gln(3R-OH)][Pro(3S-OH,4S-Me)]; lactam 1-C)",Activity,[1],inactive
same,Time,[2],10.13 h
same,Time,[3],30.46 h
same,Time,[4],>48 h
same,MIC,[5],0.25 µg/mL
same,Time,[6],13.76 h
same,Time,[7],15.34 h
same,Time,[8],>48 h
same,MIC,[9],1 µg/mL
same,Time,[10],10.15 h
same,Time,[11],20.45 h
same,Time,[12],1.38 h
same,Time,[13],inactive
same,Time,[14],1.66 h
same,Time,[15],5.89 h
same,Time,[16],1.43 h
same,Time,[17],3.06 h
same,Activity,[18],Active
same,Time,[19],>48 h
same,MIC,[20],0.5 µg/mL
same,Time,[21],11.79 h
same,Time,[22],>48 h
same,Time,[23],inactive
same,Time,[24],>48 h
same,Time,[25],17.6 h
same,Time,[26],5.53 h
same,MIC,[27],0.25 µg/mL
same,Time,[28],>48 h
same,Time,[29],9.17 h
same,Time,[30],3.05 h
same,MIC,[31],0.25 µg/mL
same,Time,[32],20.26 h
same,Time,[33],30.4 h
same,Time,[34],4.8 h
same,Time,[35],15.93 h
same,MIC,[36],0.25 µg/mL
same,Time,[37],5.11 h
same,Time,[38],4.59 h
same,Time,[39],>48 h
same,MIC,[40],1 µg/mL
same,Activity,[41],inactive
same,Activity,[42],inactive
same,Time,[43],inactive
same,MIC,[44],0.5 µg/mL
